Results on six compounds are retold here after paper PMC4539082 (Drug Design, Development and Therapy, 2015).

Bounds are passed on as bounds.

The nature of one data set: Half-life in rat. The class given is in vivo.
A further data set is described as follows: Half-life in dog. Type of data set: in vivo.
For data set [1] the following is noted: patients; cited from earlier work.
A short description of the next data set: Half-life in mice. As to conditions: mouse, in vivo.
The next data set deals with PDX of melanoma. Conditions: cited from earlier work.
Another data set relates to p3TP Lux mink lung cells. The data set can be described thus: TGF-β-dependent luciferase assay in mink lung cells. Type of data set: cell-based. As to conditions: read-out: p3TP lux, IC50; Mean values ± SEM for a minimum of three determinations (n); data on file.
For data set [2], the system named is cell lines that had no T790M mutation. Conditions: cell lines without T790M mutation; cited from earlier work.
The next data set relates to NIH3T3. Nature of the data set: Growth inhibition in mouse fibroblasts. Type of data set: cell-based. As to conditions: read-out: NIH3T3, IC50; Mean values ± SEM for a minimum of three determinations (n); data on file.
Another data set concerns the target p38MAPK (Homo sapiens, UniProt Q16539). Nature of the data set: p38MAPK inhibition, single-point determination. Type of data set: biochemical. Conditions: read-out: p38MAPK, IC50, data on file.
A further data set deals with T1, TGF-βR-I kinase domain (Homo sapiens, UniProt P36897, T204D).
T1 sequence (P36897 148-503 T204D limits assumed): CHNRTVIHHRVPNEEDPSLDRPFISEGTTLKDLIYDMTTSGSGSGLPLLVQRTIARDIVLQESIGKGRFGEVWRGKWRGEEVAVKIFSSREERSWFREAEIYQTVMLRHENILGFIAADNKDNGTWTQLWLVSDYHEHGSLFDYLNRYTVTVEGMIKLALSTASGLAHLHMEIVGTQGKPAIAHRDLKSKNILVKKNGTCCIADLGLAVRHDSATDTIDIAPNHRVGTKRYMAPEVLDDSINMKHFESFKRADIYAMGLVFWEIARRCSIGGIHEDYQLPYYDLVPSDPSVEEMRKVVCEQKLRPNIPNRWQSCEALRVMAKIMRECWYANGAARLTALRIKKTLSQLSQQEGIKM
Nature of the data set: Ki of Eli Lilly TGF-β SMIs. The class given is biochemical. Conditions: data on file, Eli Lilly and Company.

For a further data set, the system named is NSCLC cell lines. Conditions: cited from earlier work.
The next data set concerns MDAPCa2b and PC-3. As to conditions: cited from earlier work.
A further data set relates to lung fibrosis. Conditions: administration before, during, and after radiation treatment; cited from earlier work.
Data set [3] relates to pSMAD2 in glioblastoma cell lines. As to conditions: lomustine by itself; cited from earlier work.
The conditions of data set [4]: one patient with malignant melanoma; doses up to 15 mg/kg; cited from earlier work.
The conditions of data set [5]: 13 patients, 3 mg/kg every 21 days; cited from earlier work.

p38MAPK, sequence (Q16539 whole entry, the tested form may be a part): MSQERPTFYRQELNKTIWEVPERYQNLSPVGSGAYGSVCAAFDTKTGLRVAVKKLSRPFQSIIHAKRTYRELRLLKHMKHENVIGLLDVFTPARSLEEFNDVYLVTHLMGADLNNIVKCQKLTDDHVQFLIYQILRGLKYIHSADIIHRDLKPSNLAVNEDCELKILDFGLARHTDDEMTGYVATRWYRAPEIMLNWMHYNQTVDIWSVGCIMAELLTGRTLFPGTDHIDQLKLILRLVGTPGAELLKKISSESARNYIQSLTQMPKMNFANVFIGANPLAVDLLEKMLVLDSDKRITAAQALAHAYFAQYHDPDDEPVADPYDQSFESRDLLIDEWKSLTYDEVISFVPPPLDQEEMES

As a reminder, the half-life is the time in which the quantity being followed falls by half. High values mean slow loss, low ones fast loss. Consider `Cc1cccc(-c2nn3c(c2-c2ccnc4ccc(C(N)=O)cc24)CCC3)n1` [Galunisertib (LY2157299)], for which the half-life in the data set “Half-life in rat” (rat, in vivo) was 31.8 min; in the data set “Half-life in dog” (dog, in vivo), 136 min; in “Half-life in mice”, 18 min. Besides, the “drug-related Grade 3/4 toxicities” value in [1] was below 5%. In the data set with PDX of melanoma (PDX of melanoma), the pSMAD2 result was “inhibited”. Moreover, the growth inhibitory effect result in the data set with PDX of melanoma (standard tumor colony assay, melanoma PDX) is given as “no growth inhibitory effect”.

As usually defined, the IC50 is the concentration needed to halve the response being measured. Turning to `c1ccc(-c2[nH]ncc2-c2ccnc3ccccc23)nc1` [LY364947], the IC50 in the data set on p3TP Lux mink lung cells is 47 ± 16 nM; with NIH3T3 it was 89 ± 10 nM; on p38MAPK, 740 nM. For the same compound, the EGFR resistance result in [2] is listed as “able to overcome the EGFR resistance”.

Broadly, the Ki is the dissociation constant of the complex between target and ligand, obtained from inhibition or displacement. Read a low Ki as a stronger hold on the target. Take `Cc1cccc(-c2nn3c(c2-c2ccc(F)cc2)CCC3)n1` [LY580276]: the affinity on TGF-βR-I kinase domain corresponds to a Ki of 37 nM. The IC50 was 96 ± 16 nM in the data set on p3TP Lux mink lung cells, 339 ± 349 nM in the data set on NIH3T3 and above 20000 nM at p38MAPK.

`c1ccc(-c2nn3c(c2-c2ccnc4cc(OCCN5CCOCC5)ccc24)CCC3)nc1` [LY2109761]: the Half-life mean in “Half-life in rat” (Rat, data on file) is 108 min; in the data set “Half-life in dog” (Dog, data on file), 60 to 120 min. In addition, in the data set on NSCLC cell lines, the metastatic spread entry was “reduced metastatic spread”. For the same compound, the IC50 with p3TP Lux mink lung cells was 180 ± 93 nM; with NIH3T3 it was 210 ± 170 nM. For the same compound, in the data set with MDAPCa2b and PC-3, the “antitumor activity, bone metastasis” value is on record as “inhibiting bone metastasis”. The lung fibrosis entry in the data set with lung fibrosis is given as “inhibited lung fibrosis”.

Take `O=NN(CCCl)C(=O)NC1CCCCC1` [lomustine]: the pSMAD2 result in data set [3] is listed as “reduced pSMAD2”.

For “fresolimumab: pan-TGF-β ligand monoclonal antibody”, in [4], the “duration of partial response” value is recorded as 44.4 weeks. Moreover, the radiographic responses entry in data set [5] is “None of the patients had radiographic responses”.
